# From PubChem BioAssay AID328 (DTP/NCI, 2004)
# “And” between values parts separate entries of the source, which are not always exact repeats. Equal entries are not always repeated. Toxic doses and inconclusive results are not listed.
# Tested on: BDF1 mice, P388 leukemia ip, median survival T/C
# Test: NCI In Vivo Anticancer Drug Screen. Data for tumor model P388 Leukemia (intraperitoneal) in B6D2F1 (BDF1) mice
# Conditions: endpoint: median survival time, higher = longer survival
# Procedure, shortened: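 Mice carrying the transplantable tumour receive compound or vehicle. Survival is followed in each arm, and the treated measure is divided by the vehicle measure.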
# [1] = dose: 25.0 mg/kg/injection, schedule: Q01DX009 (ip), vehicle: saline
# [2] = dose: 50.0 mg/kg/injection, schedule: Q01DX009 (ip), vehicle: saline
# [3] = dose: 100.0 mg/kg/injection, schedule: Q01DX009 (ip), vehicle: saline
# [4] = dose: 200.0 mg/kg/injection, schedule: Q01DX009 (ip), vehicle: saline with Tween-80
# [5] = dose: 300.0 mg/kg/injection, schedule: Q01DX009 (ip), vehicle: saline with Tween-80
# [6] = dose: 25.0 mg/kg/injection, schedule: Q04DX003 (ip), vehicle: saline with Tween-80
# [7] = dose: 50.0 mg/kg/injection, schedule: Q04DX003 (ip), vehicle: saline with Tween-80
# [8] = dose: 100.0 mg/kg/injection, schedule: Q04DX003 (ip), vehicle: saline with Tween-80
# [9] = dose: 25.0 mg/kg/injection, schedule: Q04DX003 (ip), vehicle: saline
# [10] = dose: 50.0 mg/kg/injection, schedule: Q04DX003 (ip), vehicle: saline
# [11] = dose: 12.5 mg/kg/injection, schedule: Q04DX003 (ip), vehicle: saline
# [12] = dose: 50.0 mg/kg/injection, schedule: Q01DX009 (ip), vehicle: saline with Tween-80
# [13] = dose: 100.0 mg/kg/injection, schedule: Q01DX009 (ip), vehicle: saline with Tween-80
smiles,measurement,setting,value
CC(=O)Nc1ccc(N2CCN=N2)cc1,T/C,"dose: 12.5 mg/kg/injection, schedule: Q01DX009 (ip), vehicle: saline",110 % of control
same,T/C,[1],95 % of control
same,T/C,[2],105 % of control
same,T/C,"dose: 75.0 mg/kg/injection, schedule: Q01DX009 (ip), vehicle: Klucel (hydroxypropylcellulose) (HPC)",104 % of control
O=C(O)C(Cl)Cc1cnc[nH]1 (stereo not given),T/C,[2],97 % of control and 91 % of control
same,T/C,[3],107 % of control and 87 % of control
same,T/C,"dose: 200.0 mg/kg/injection, schedule: Q01DX009 (ip), vehicle: saline",103 % of control and 95 % of control
C=CCSc1nc(N)nc2c1ncn2C1CC(O)C(CO)O1 (stereo not given),T/C,[1],102 % of control
same,T/C,[2],114 % of control and 111 % of control
same,T/C,[3],123 % of control and 95 % of control
same,T/C,"dose: 100.0 mg/kg/injection, schedule: Q04DX003 (ip), vehicle: saline",104 % of control
same,T/C,[4],181 % of control
same,T/C,"dose: 200.0 mg/kg/injection, schedule: Q04DX003 (ip), vehicle: saline",122 % of control and 94 % of control and 100 % of control
same,T/C,[5],154 % of control
same,T/C,"dose: 400.0 mg/kg/injection, schedule: Q01DX009 (ip), vehicle: saline",107 % of control
same,T/C,"dose: 400.0 mg/kg/injection, schedule: Q04DX003 (ip), vehicle: saline",99 % of control and 104 % of control
CCCCOC1OC[N+](C)(C)CC1(C)C (stereo not given),T/C,[6],102 % of control
same,T/C,[7],105 % of control
same,T/C,[8],100 % of control and 105 % of control
C1CNCOC1,T/C,[9],105 % of control
same,T/C,[10],119 % of control
CCC(C)(C)c1ccc(OCCOS(=O)(=O)c2ccc(C)cc2)cc1,T/C,[11],95 % of control
same,T/C,[9],100 % of control
same,T/C,[10],91 % of control
COC(=O)/C(N=Nc1cccc(C)c1)=C(\C)O,T/C,[12],97 % of control
same,T/C,[13],103 % of control
CN(C)CCCN1c2ccccc2Sc2ccc(C(F)(F)F)cc21,T/C,"dose: 6.25 mg/kg/injection, schedule: Q01DX009 (ip), vehicle: saline",100 % of control
same,T/C,"dose: 6.25 mg/kg/injection, schedule: Q04DX003 (ip), vehicle: saline with Tween-80",108 % of control
same,T/C,"dose: 8.9 mg/kg/injection, schedule: Q01DX009 (ip), vehicle: saline",118 % of control
same,T/C,"dose: 9.37 mg/kg/injection, schedule: Q01DX009 (ip), vehicle: saline",110 % of control
same,T/C,"dose: 12.5 mg/kg/injection, schedule: Q04DX003 (ip), vehicle: saline with Tween-80",113 % of control
same,T/C,[11],108 % of control
same,T/C,"dose: 13.4 mg/kg/injection, schedule: Q01DX009 (ip), vehicle: saline",109 % of control
same,T/C,"dose: 16.5 mg/kg/injection, schedule: Q01DX009 (ip), vehicle: saline",122 % of control
same,T/C,"dose: 20.0 mg/kg/injection, schedule: Q01DX009 (ip), vehicle: saline",118 % of control
same,T/C,[1],100 % of control
same,T/C,[6],113 % of control
same,T/C,[9],109 % of control
same,T/C,"dose: 37.5 mg/kg/injection, schedule: Q01DX009 (ip), vehicle: saline",100 % of control
same,T/C,"dose: 37.5 mg/kg/injection, schedule: Q04DX003 (ip), vehicle: saline",161 % of control
same,T/C,[2],95 % of control
OCCNCCNCCO,T/C,"dose: 50.0 mg/kg/injection, schedule: Q01DX001 (ip), vehicle: saline",100 % of control
same,T/C,"dose: 100.0 mg/kg/injection, schedule: Q01DX001 (ip), vehicle: saline",104 % of control
same,T/C,"dose: 200.0 mg/kg/injection, schedule: Q01DX001 (ip), vehicle: saline",104 % of control
O=C1OC(c2ccccc2)=C/C1=C/c1ccccc1O,T/C,"dose: 25.0 mg/kg/injection, schedule: Q01DX009 (ip), vehicle: saline with Tween-80",109 % of control
same,T/C,[12],91 % of control
same,T/C,[7],104 % of control
same,T/C,[13],97 % of control
same,T/C,[8],109 % of control
same,T/C,[4],97 % of control and 118 % of control
same,T/C,"dose: 200.0 mg/kg/injection, schedule: Q04DX003 (ip), vehicle: saline with Tween-80",116 % of control
same,T/C,[5],108 % of control
same,T/C,"dose: 400.0 mg/kg/injection, schedule: Q01DX009 (ip), vehicle: saline with Tween-80",113 % of control and 124 % of control
same,T/C,"dose: 400.0 mg/kg/injection, schedule: Q04DX003 (ip), vehicle: saline with Tween-80",114 % of control
same,T/C,"dose: 500.0 mg/kg/injection, schedule: Q01DX009 (ip), vehicle: saline with Tween-80",122 % of control
